Assay results: patent US20260130395A1, “Water Dispersible Botanical Compositions” (Aquila Black Limited, priority 2021, published 2026)

Experiment: Stability of cannabinoid compounds and Vitamin E components in Beverage 2 (AB Red) by LCMSMS
Assay type: physicochemical

Structure (SMILES): C=C(C)[C@@H]1CCC(C)=C[C@H]1c1c(O)cc(CCCCC)c(C(=O)O)c1O [CBDA, cannabidiolic acid]
- Stability of Plant-Derived Cannabinoid Compounds in AB Red (stored at 8° C., 0 days): 1.68 µg/mL
- Stability of Plant-Derived Cannabinoid Compounds in AB Red (stored at 8° C., 1 days): 1.69 µg/mL
- Stability of Plant-Derived Cannabinoid Compounds in AB Red (stored at 8° C., 2 days): 1.66 µg/mL
- Stability of Plant-Derived Cannabinoid Compounds in AB Red (stored at 8° C., 3 days): 1.64 µg/mL
- Stability of Plant-Derived Cannabinoid Compounds in AB Red (stored at 8° C., 5 days): 1.67 µg/mL
- Stability of Plant-Derived Cannabinoid Compounds in AB Red (stored at 8° C., 8 days): 1.68 µg/mL
- Stability of Plant-Derived Cannabinoid Compounds in AB Red (stored at 8° C., 9 days): 1.65 µg/mL
- Stability of Plant-Derived Cannabinoid Compounds in AB Red (stored at 8° C., 10 days): 1.67 µg/mL
- Stability of Plant-Derived Cannabinoid Compounds in AB Red (stored at 8° C., 11 days): 1.65 µg/mL
- Stability of Plant-Derived Cannabinoid Compounds in AB Red (stored at 8° C., 12 days): 1.68 µg/mL
- Stability of Plant-Derived Cannabinoid Compounds in AB Red (stored at 8° C., 15 days): 1.67 µg/mL
- Stability of Plant-Derived Cannabinoid Compounds in AB Red (stored at 8° C., 16 days): 1.69 µg/mL
- Stability of Plant-Derived Cannabinoid Compounds in AB Red (stored at 8° C., 17 days): 1.64 µg/mL
- Stability of Plant-Derived Cannabinoid Compounds in AB Red (stored at 8° C., 18 days): 1.65 µg/mL
- Stability of Plant-Derived Cannabinoid Compounds in AB Red (stored at 8° C., 19 days): 1.68 µg/mL
- Stability of Plant-Derived Cannabinoid Compounds in AB Red (stored at 8° C., 22 days): 1.70 µg/mL
- Stability of Plant-Derived Cannabinoid Compounds in AB Red (stored at 8° C., 23 days): 1.63 µg/mL
- Stability of Plant-Derived Cannabinoid Compounds in AB Red (stored at 8° C., 24 days): 1.70 µg/mL
- Stability of Plant-Derived Cannabinoid Compounds in AB Red (stored at 8° C., 25 days): 1.63 µg/mL
- Stability of Plant-Derived Cannabinoid Compounds in AB Red (stored at 8° C., 26 days): 1.63 µg/mL
- Stability of Plant-Derived Cannabinoid Compounds in AB Red (stored at 8° C., 29 days): 1.66 µg/mL
- Stability of Plant-Derived Cannabinoid Compounds in AB Red (stored at 8° C., 30 days): 1.70 µg/mL
- Stability of Plant-Derived Cannabinoid Compounds in AB Red (stored at 8° C., 60 days): 1.66 µg/mL
- Stability of Plant-Derived Cannabinoid Compounds in AB Red (stored at 8° C., 90 days): 1.68 µg/mL
- Stability of Plant-Derived Cannabinoid Compounds in AB Red (stored at 8° C., 120 days): 1.65 µg/mL
- Stability of Plant-Derived Cannabinoid Compounds in AB Red (stored at 8° C., 150 days): 1.66 µg/mL
- Stability of Plant-Derived Cannabinoid Compounds in AB Red (stored at 8° C., 180 days): 1.60 µg/mL
- Stability of Plant-Derived Cannabinoid Compounds in AB Red (stored at 8° C., 210 days): 1.65 µg/mL
- Stability of Plant-Derived Cannabinoid Compounds in AB Red (stored at 8° C., 240 days): 1.66 µg/mL
- Stability of Plant-Derived Cannabinoid Compounds in AB Red (stored at 8° C., 270 days): 1.63 µg/mL
- Stability of Plant-Derived Cannabinoid Compounds in AB Red (stored at 8° C., 300 days): 1.65 µg/mL
- Stability of Plant-Derived Cannabinoid Compounds in AB Red (stored at 8° C., 330 days): 1.60 µg/mL
- Stability of Plant-Derived Cannabinoid Compounds in AB Red (stored at 8° C., 360 days): 1.62 µg/mL
- Stability of Plant-Derived Cannabinoid Compounds in AB Red (stored at 8° C., 390 days): 1.63 µg/mL
- Stability of Plant-Derived Cannabinoid Compounds in AB Red (stored at 8° C., 420 days): 1.63 µg/mL
- Stability of Plant-Derived Cannabinoid Compounds in AB Red (stored at 8° C., 450 days): 1.63 µg/mL
- Stability of Plant-Derived Cannabinoid Compounds in AB Red (stored at 8° C., 480 days): 1.60 µg/mL
- Stability of Plant-Derived Cannabinoid Compounds in AB Red (stored at 8° C., 510 days): 1.55 µg/mL
- Stability of Plant-Derived Cannabinoid Compounds in AB Red (stored at 8° C., 540 days): 1.55 µg/mL
- Stability of Plant-Derived Cannabinoid Compounds in AB Red (stored at 8° C., 570 days): 1.54 µg/mL
- Stability of Plant-Derived Cannabinoid Compounds in AB Red (stored at 21-25° C., 0 days): 1.68 µg/mL
- Stability of Plant-Derived Cannabinoid Compounds in AB Red (stored at 21-25° C., 1 days): 1.70 µg/mL
- Stability of Plant-Derived Cannabinoid Compounds in AB Red (stored at 21-25° C., 2 days): 1.65 µg/mL
- Stability of Plant-Derived Cannabinoid Compounds in AB Red (stored at 21-25° C., 3 days): 1.64 µg/mL
- Stability of Plant-Derived Cannabinoid Compounds in AB Red (stored at 21-25° C., 5 days): 1.69 µg/mL
- Stability of Plant-Derived Cannabinoid Compounds in AB Red (stored at 21-25° C., 8 days): 1.64 µg/mL
- Stability of Plant-Derived Cannabinoid Compounds in AB Red (stored at 21-25° C., 9 days): 1.63 µg/mL
- Stability of Plant-Derived Cannabinoid Compounds in AB Red (stored at 21-25° C., 10 days): 1.61 µg/mL
- Stability of Plant-Derived Cannabinoid Compounds in AB Red (stored at 21-25° C., 11 days): 1.64 µg/mL
- Stability of Plant-Derived Cannabinoid Compounds in AB Red (stored at 21-25° C., 12 days): 1.70 µg/mL
- Stability of Plant-Derived Cannabinoid Compounds in AB Red (stored at 21-25° C., 15 days): 1.64 µg/mL
- Stability of Plant-Derived Cannabinoid Compounds in AB Red (stored at 21-25° C., 16 days): 1.67 µg/mL
- Stability of Plant-Derived Cannabinoid Compounds in AB Red (stored at 21-25° C., 17 days): 1.63 µg/mL
- Stability of Plant-Derived Cannabinoid Compounds in AB Red (stored at 21-25° C., 18 days): 1.65 µg/mL
- Stability of Plant-Derived Cannabinoid Compounds in AB Red (stored at 21-25° C., 19 days): 1.70 µg/mL
- Stability of Plant-Derived Cannabinoid Compounds in AB Red (stored at 21-25° C., 22 days): 1.66 µg/mL
- Stability of Plant-Derived Cannabinoid Compounds in AB Red (stored at 21-25° C., 23 days): 1.63 µg/mL
- Stability of Plant-Derived Cannabinoid Compounds in AB Red (stored at 21-25° C., 24 days): 1.65 µg/mL
- Stability of Plant-Derived Cannabinoid Compounds in AB Red (stored at 21-25° C., 25 days): 1.64 µg/mL
- Stability of Plant-Derived Cannabinoid Compounds in AB Red (stored at 21-25° C., 26 days): 1.67 µg/mL
- Stability of Plant-Derived Cannabinoid Compounds in AB Red (stored at 21-25° C., 29 days): 1.62 µg/mL
- Stability of Plant-Derived Cannabinoid Compounds in AB Red (stored at 21-25° C., 30 days): 1.68 µg/mL
- Stability of Plant-Derived Cannabinoid Compounds in AB Red (stored at 21-25° C., 60 days): 1.59 µg/mL
- Stability of Plant-Derived Cannabinoid Compounds in AB Red (stored at 21-25° C., 90 days): 1.60 µg/mL
- Stability of Plant-Derived Cannabinoid Compounds in AB Red (stored at 21-25° C., 120 days): 1.64 µg/mL
- Stability of Plant-Derived Cannabinoid Compounds in AB Red (stored at 21-25° C., 150 days): 1.58 µg/mL
- Stability of Plant-Derived Cannabinoid Compounds in AB Red (stored at 21-25° C., 180 days): 1.64 µg/mL
- Stability of Plant-Derived Cannabinoid Compounds in AB Red (stored at 21-25° C., 210 days): 1.64 µg/mL
- Stability of Plant-Derived Cannabinoid Compounds in AB Red (stored at 21-25° C., 240 days): 1.60 µg/mL
- Stability of Plant-Derived Cannabinoid Compounds in AB Red (stored at 21-25° C., 270 days): 1.65 µg/mL
- Stability of Plant-Derived Cannabinoid Compounds in AB Red (stored at 21-25° C., 300 days): 1.58 µg/mL
- Stability of Plant-Derived Cannabinoid Compounds in AB Red (stored at 21-25° C., 330 days): 1.65 µg/mL
- Stability of Plant-Derived Cannabinoid Compounds in AB Red (stored at 21-25° C., 360 days): 1.58 µg/mL
- Stability of Plant-Derived Cannabinoid Compounds in AB Red (stored at 21-25° C., 390 days): 1.61 µg/mL
- Stability of Plant-Derived Cannabinoid Compounds in AB Red (stored at 21-25° C., 420 days): 1.59 µg/mL
- Stability of Plant-Derived Cannabinoid Compounds in AB Red (stored at 21-25° C., 450 days): 1.57 µg/mL
- Stability of Plant-Derived Cannabinoid Compounds in AB Red (stored at 21-25° C., 480 days): 1.57 µg/mL
- Stability of Plant-Derived Cannabinoid Compounds in AB Red (stored at 21-25° C., 510 days): 1.56 µg/mL
- Stability of Plant-Derived Cannabinoid Compounds in AB Red (stored at 21-25° C., 540 days): 1.57 µg/mL
- Stability of Plant-Derived Cannabinoid Compounds in AB Red (stored at 21-25° C., 570 days): 1.54 µg/mL
